In assay [1] the target is ATP-dependent translocase ABCB1 (Homo sapiens, UniProt P08183). The assay can be described thus: Inhibition of human MDR1 expressed in mouse B16/F10 cells assessed as increase in doxorubicin accumulation by fluorimetry. The format is cell-based. Particulars: read-out: ED50 (the source's name).
The subject of a further assay is B16-F10. The assay can be described thus: Effect on doxorubicin accumulation in mouse B16/F10 cells by fluorimetry. The format is functional, cell-based.

Activity calls are given as the source filed them. The calls are words filed in the database; no cut-off is given here.

Chain of ATP-dependent translocase ABCB1 (P08183 whole entry): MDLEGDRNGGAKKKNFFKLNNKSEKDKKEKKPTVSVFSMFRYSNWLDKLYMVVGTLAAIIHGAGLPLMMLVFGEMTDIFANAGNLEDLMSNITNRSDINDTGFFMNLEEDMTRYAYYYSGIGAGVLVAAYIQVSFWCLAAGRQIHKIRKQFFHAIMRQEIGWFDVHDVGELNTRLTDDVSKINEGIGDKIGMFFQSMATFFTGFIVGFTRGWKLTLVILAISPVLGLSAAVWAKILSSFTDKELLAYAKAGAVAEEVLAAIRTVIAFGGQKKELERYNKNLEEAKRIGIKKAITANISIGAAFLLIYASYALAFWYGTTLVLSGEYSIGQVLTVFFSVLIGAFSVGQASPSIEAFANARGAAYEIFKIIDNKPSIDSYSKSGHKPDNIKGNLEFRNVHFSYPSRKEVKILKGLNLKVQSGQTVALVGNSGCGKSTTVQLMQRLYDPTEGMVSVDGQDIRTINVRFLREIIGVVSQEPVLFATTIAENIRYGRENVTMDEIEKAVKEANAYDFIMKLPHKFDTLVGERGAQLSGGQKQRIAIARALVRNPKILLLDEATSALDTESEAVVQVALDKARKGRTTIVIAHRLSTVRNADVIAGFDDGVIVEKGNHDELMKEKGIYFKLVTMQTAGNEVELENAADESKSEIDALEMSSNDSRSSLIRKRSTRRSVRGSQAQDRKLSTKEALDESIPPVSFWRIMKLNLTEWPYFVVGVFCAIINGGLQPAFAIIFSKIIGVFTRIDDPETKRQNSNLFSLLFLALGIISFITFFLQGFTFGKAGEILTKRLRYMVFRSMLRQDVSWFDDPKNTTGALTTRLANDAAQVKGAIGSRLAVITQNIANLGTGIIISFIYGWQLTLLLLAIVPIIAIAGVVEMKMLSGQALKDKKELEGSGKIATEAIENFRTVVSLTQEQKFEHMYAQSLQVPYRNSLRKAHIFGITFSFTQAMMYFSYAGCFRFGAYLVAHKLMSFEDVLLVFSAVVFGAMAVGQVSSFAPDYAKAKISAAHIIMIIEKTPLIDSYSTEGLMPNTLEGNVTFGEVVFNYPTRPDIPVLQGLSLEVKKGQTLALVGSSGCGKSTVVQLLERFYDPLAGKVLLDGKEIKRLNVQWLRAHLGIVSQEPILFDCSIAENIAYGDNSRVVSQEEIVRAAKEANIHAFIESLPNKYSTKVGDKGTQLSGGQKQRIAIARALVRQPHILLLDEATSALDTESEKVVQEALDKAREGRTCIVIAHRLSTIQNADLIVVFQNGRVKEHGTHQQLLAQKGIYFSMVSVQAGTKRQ

As to `CC1(C)C(=O)C(O)=C[C@]2(C)[C@H]3CC[C@@](C)(C(=O)CO)C=C3CC[C@@H]12` [LONCHOPHYLLOID A], in assay [1], the EC50 is 193 µM. Further, in the assay on B16-F10, the outcome was inactive.

On to `CC1(C)[C@@H](O)CC[C@]2(C)[C@H]3CC[C@@](C)(C(=O)CO)C=C3CC[C@@H]12` [LONCHOPHYLLOID B], for which the EC50 in assay [1] was 195 µM. The result in the assay with B16-F10 was inactive.

The values above are taken from ChEMBL document CHEMBL1159194, “Two pimarane diterpenoids from Ephemerantha lonchophylla and their evaluation as modulators of the multidrug resistance phenotype” (J Nat Prod, 1998).
